Reference: ChEMBL document CHEMBL1139502, “Oxazine 170 induces DNA:RNA:DNA triplex formation” (J Med Chem, 2005)

Test system: Nucleic Acid
Assay: Apparent binding constant towards calf thymus DNA
Assay type: nucleic-acid assay
Conditions: Bos taurus

K app: 26000 M⁻¹
Structure (SMILES): CC/N=c1/cc2oc3cc(NCC)c(C)cc3nc-2c2ccccc12
